Source: the NIST ThermoML archive (doi:10.1021/je400055v)

Experiment: xn = mol fraction of the nth substance listed
Settings: Liquid, Vibrating tube method

CCCCCCCCCCC [undecane] + CCCCCCC
Settings	mass density [kg/m3]
323.12 K, 7000 kPa, x2 = 0.7482	685.4
323.12 K, 8000 kPa, x2 = 0.7482	686.4
323.12 K, 8001 kPa, x2 = 0.05	722.8
323.12 K, 9000 kPa, x2 = 0.05	723.6
323.12 K, 9000 kPa, x2 = 0.7482	687.3
323.12 K, 10000 kPa, x2 = 0.05	724.5
323.12 K, 10000 kPa, x2 = 0.7482	688.3
323.12 K, 11000 kPa, x2 = 0.05	725.3
323.12 K, 11000 kPa, x2 = 0.7482	689.2
323.12 K, 12000 kPa, x2 = 0.05	726.1
323.12 K, 12000 kPa, x2 = 0.7482	690.1
323.12 K, 13000 kPa, x2 = 0.05	726.8
323.12 K, 13000 kPa, x2 = 0.7482	691.1
323.12 K, 14000 kPa, x2 = 0.05	727.6
323.12 K, 14000 kPa, x2 = 0.7482	691.9
323.12 K, 15000 kPa, x2 = 0.05	728.4
323.12 K, 15000 kPa, x2 = 0.7482	692.8
323.12 K, 16000 kPa, x2 = 0.05	729.1
323.12 K, 16000 kPa, x2 = 0.7482	693.7
323.12 K, 17000 kPa, x2 = 0.05	729.9
323.12 K, 17000 kPa, x2 = 0.7482	694.5
323.12 K, 18000 kPa, x2 = 0.05	730.6
323.12 K, 18000 kPa, x2 = 0.7482	695.4
323.12 K, 19000 kPa, x2 = 0.05	731.3
323.12 K, 19000 kPa, x2 = 0.7482	696.2
323.12 K, 20000 kPa, x2 = 0.05	732
323.12 K, 20000 kPa, x2 = 0.7482	697
323.12 K, 21000 kPa, x2 = 0.05	732.7
323.12 K, 21000 kPa, x2 = 0.7482	697.8
323.12 K, 22000 kPa, x2 = 0.7482	698.6
323.12 K, 22001 kPa, x2 = 0.05	733.4
323.12 K, 23000 kPa, x2 = 0.05	734.1
323.12 K, 23000 kPa, x2 = 0.7482	699.4
323.12 K, 24000 kPa, x2 = 0.05	734.8
323.12 K, 24000 kPa, x2 = 0.7482	700.1
323.12 K, 25000 kPa, x2 = 0.05	735.4
323.12 K, 25000 kPa, x2 = 0.7482	700.9
323.15 K, 1000 kPa, x2 = 0.2346	708.9
323.15 K, 2000 kPa, x2 = 0.2346	709.9
323.15 K, 3000 kPa, x2 = 0.2346	710.8
323.15 K, 4001 kPa, x2 = 0.2346	711.7
323.15 K, 5001 kPa, x2 = 0.2346	712.6
323.15 K, 6001 kPa, x2 = 0.2346	713.5
323.15 K, 7001 kPa, x2 = 0.2346	714.4
323.15 K, 8000 kPa, x2 = 0.2346	715.2
323.15 K, 9000 kPa, x2 = 0.2346	716.1
323.15 K, 10000 kPa, x2 = 0.2346	716.9
323.15 K, 11000 kPa, x2 = 0.2346	717.7
323.15 K, 12000 kPa, x2 = 0.2346	718.5
323.15 K, 13000 kPa, x2 = 0.2346	719.4
323.15 K, 14000 kPa, x2 = 0.2346	720.1
323.15 K, 15000 kPa, x2 = 0.2346	720.9
323.15 K, 16001 kPa, x2 = 0.2346	721.7
323.15 K, 17000 kPa, x2 = 0.2346	722.5
323.15 K, 18000 kPa, x2 = 0.2346	723.2
323.15 K, 19000 kPa, x2 = 0.2346	724
323.15 K, 20000 kPa, x2 = 0.2346	724.7
323.15 K, 21033 kPa, x2 = 0.2346	725.4
323.15 K, 22034 kPa, x2 = 0.2346	726.1
323.15 K, 23036 kPa, x2 = 0.2346	726.9
323.15 K, 24037 kPa, x2 = 0.2346	727.5
323.15 K, 25039 kPa, x2 = 0.2346	728.2
333.01 K, 1001 kPa, x2 = 0.9511	654.4
333.01 K, 2000 kPa, x2 = 0.9511	655.7
333.01 K, 3000 kPa, x2 = 0.9511	656.9
333.01 K, 4000 kPa, x2 = 0.9511	658.2
333.01 K, 5000 kPa, x2 = 0.9511	659.4
333.01 K, 6000 kPa, x2 = 0.9511	660.5
333.01 K, 7000 kPa, x2 = 0.9511	661.7
333.01 K, 8000 kPa, x2 = 0.9511	662.8
333.01 K, 9000 kPa, x2 = 0.9511	663.9
333.01 K, 10000 kPa, x2 = 0.9511	665
333.01 K, 11000 kPa, x2 = 0.9511	666.1
333.01 K, 12000 kPa, x2 = 0.9511	667.1
333.01 K, 13000 kPa, x2 = 0.9511	668.2
333.01 K, 14001 kPa, x2 = 0.9511	669.2
333.01 K, 15001 kPa, x2 = 0.9511	670.2
333.01 K, 16000 kPa, x2 = 0.9511	671.2
333.01 K, 17001 kPa, x2 = 0.9511	672.1
333.01 K, 18001 kPa, x2 = 0.9511	673.1
333.01 K, 19000 kPa, x2 = 0.9511	674
333.01 K, 20000 kPa, x2 = 0.9511	674.9
333.01 K, 21001 kPa, x2 = 0.9511	675.8
333.01 K, 22000 kPa, x2 = 0.9511	676.7
333.01 K, 23001 kPa, x2 = 0.9511	677.6
333.01 K, 24000 kPa, x2 = 0.9511	678.5
333.01 K, 25000 kPa, x2 = 0.9511	679.3
333.04 K, 2001 kPa, x2 = 0.5063	688
333.04 K, 3000 kPa, x2 = 0.5063	689
333.04 K, 4000 kPa, x2 = 0.5063	690.1
333.04 K, 5000 kPa, x2 = 0.5063	691.1
333.04 K, 6000 kPa, x2 = 0.5063	692.1
333.04 K, 7000 kPa, x2 = 0.5063	693.1
333.04 K, 8001 kPa, x2 = 0.5063	694.1
333.04 K, 9000 kPa, x2 = 0.5063	695
333.04 K, 10000 kPa, x2 = 0.5063	696
333.04 K, 11000 kPa, x2 = 0.5063	696.9
333.04 K, 12000 kPa, x2 = 0.5063	697.8
333.04 K, 13000 kPa, x2 = 0.5063	698.7
333.04 K, 14000 kPa, x2 = 0.5063	699.6
333.04 K, 15000 kPa, x2 = 0.5063	700.5
333.04 K, 16000 kPa, x2 = 0.5063	701.4
333.04 K, 17001 kPa, x2 = 0.5063	702.2
333.04 K, 18000 kPa, x2 = 0.5063	703.1
333.04 K, 19000 kPa, x2 = 0.5063	703.9
333.04 K, 20000 kPa, x2 = 0.5063	704.7
333.04 K, 21001 kPa, x2 = 0.5063	705.6
333.04 K, 22050 kPa, x2 = 0.5063	706.3
333.04 K, 23000 kPa, x2 = 0.5063	707.1
333.04 K, 24000 kPa, x2 = 0.5063	707.9
333.04 K, 25000 kPa, x2 = 0.5063	708.7
333.05 K, 1000 kPa, x2 = 0.7482	670.8
333.05 K, 2000 kPa, x2 = 0.7482	672
333.05 K, 3000 kPa, x2 = 0.7482	673.1
333.05 K, 4000 kPa, x2 = 0.7482	674.3
333.05 K, 5000 kPa, x2 = 0.7482	675.4
333.05 K, 6000 kPa, x2 = 0.7482	676.4
333.05 K, 7000 kPa, x2 = 0.7482	677.5
333.05 K, 8000 kPa, x2 = 0.7482	678.6
333.05 K, 9000 kPa, x2 = 0.7482	679.6
333.05 K, 10000 kPa, x2 = 0.7482	680.6
333.05 K, 11000 kPa, x2 = 0.7482	681.6
333.05 K, 12000 kPa, x2 = 0.7482	682.6
333.05 K, 13000 kPa, x2 = 0.7482	683.6
333.05 K, 14000 kPa, x2 = 0.7482	684.5
333.05 K, 15000 kPa, x2 = 0.7482	685.4
333.05 K, 16000 kPa, x2 = 0.7482	686.4
333.05 K, 17000 kPa, x2 = 0.7482	687.3
333.05 K, 18000 kPa, x2 = 0.7482	688.2
333.05 K, 19000 kPa, x2 = 0.7482	689
333.05 K, 20000 kPa, x2 = 0.7482	689.9
333.05 K, 21000 kPa, x2 = 0.7482	690.8
333.05 K, 22000 kPa, x2 = 0.7482	691.6
333.05 K, 23000 kPa, x2 = 0.7482	692.4
333.05 K, 24000 kPa, x2 = 0.7482	693.2
333.05 K, 25000 kPa, x2 = 0.7482	694
333.09 K, 1001 kPa, x2 = 0.05	709.1
333.09 K, 1004 kPa, x2 = 0.2346	701.3
333.09 K, 2001 kPa, x2 = 0.05	710.1
333.09 K, 2004 kPa, x2 = 0.2346	702.3
333.09 K, 3000 kPa, x2 = 0.05	711
333.09 K, 3003 kPa, x2 = 0.2346	703.3
333.09 K, 4000 kPa, x2 = 0.05	712
333.09 K, 4003 kPa, x2 = 0.2346	704.2
333.09 K, 5000 kPa, x2 = 0.05	712.9
333.09 K, 5003 kPa, x2 = 0.2346	705.2
333.09 K, 6000 kPa, x2 = 0.05	713.8
333.09 K, 6003 kPa, x2 = 0.2346	706.1
333.09 K, 7000 kPa, x2 = 0.05	714.7
333.09 K, 7003 kPa, x2 = 0.2346	707
333.09 K, 8001 kPa, x2 = 0.05	715.6
333.09 K, 8002 kPa, x2 = 0.2346	708
333.09 K, 9000 kPa, x2 = 0.05	716.5
333.09 K, 9002 kPa, x2 = 0.2346	708.9
333.09 K, 10000 kPa, x2 = 0.05	717.3
333.09 K, 10002 kPa, x2 = 0.2346	709.7
333.09 K, 11000 kPa, x2 = 0.05	718.2
333.09 K, 11002 kPa, x2 = 0.2346	710.6
333.09 K, 12000 kPa, x2 = 0.05	719
333.09 K, 12002 kPa, x2 = 0.2346	711.5
333.09 K, 13000 kPa, x2 = 0.05	719.9
333.09 K, 13001 kPa, x2 = 0.2346	712.3
333.09 K, 14000 kPa, x2 = 0.05	720.7
333.09 K, 14001 kPa, x2 = 0.2346	713.2
333.09 K, 15000 kPa, x2 = 0.05	721.5
333.09 K, 15002 kPa, x2 = 0.2346	714
333.09 K, 16000 kPa, x2 = 0.05	722.3
333.09 K, 16002 kPa, x2 = 0.2346	714.8
333.09 K, 17000 kPa, x2 = 0.05	723.1
333.09 K, 17002 kPa, x2 = 0.2346	715.6
333.09 K, 18000 kPa, x2 = 0.05	723.8
333.09 K, 18002 kPa, x2 = 0.2346	716.4
333.09 K, 19000 kPa, x2 = 0.05	724.6
333.09 K, 19001 kPa, x2 = 0.2346	717.2
333.09 K, 20000 kPa, x2 = 0.05	725.4
333.09 K, 20002 kPa, x2 = 0.2346	718
333.09 K, 21000 kPa, x2 = 0.05	726.1
333.09 K, 21035 kPa, x2 = 0.2346	718.8
333.09 K, 22001 kPa, x2 = 0.05	726.8
333.09 K, 22036 kPa, x2 = 0.2346	719.5
333.09 K, 23000 kPa, x2 = 0.05	727.6
333.09 K, 23038 kPa, x2 = 0.2346	720.3
333.09 K, 24000 kPa, x2 = 0.05	728.3
333.09 K, 24039 kPa, x2 = 0.2346	721
333.09 K, 25000 kPa, x2 = 0.05	729
333.09 K, 25041 kPa, x2 = 0.2346	721.8
